# Results taken from patent US20230270781A1, “TREATMENT OR PREVENTION OF PRO-INFLAMMATORY DISEASES OR CONDITIONS USING INDUCED REGULATORY T (ITREG) CELLS” (RAPA THERAPEUTICS, LLC, priority 2020, published 2023).
# Key:
# Format in all cases: cell-based
# [1] = test system: human CD4+ and CD8+ T cells; assay: RNA expression analysis (Luminex Quantigene) after 3-day de-differentiation culture; conditions: relative to control Th1/Tc1 culture, temsirolimus 1 µM
# Experimental: At the end of the de-differentiation interval, cells were harvested, RNA was isolated, and RNA expression analysis was performed by Luminex Quantigene method. All results shown represent relative RNA expression, with results normalized to a value of 1.0 for the Th1/Tc1 control culture.
# [2] = test system: human CD4+ and CD8+ T cells; assay: Western blot for autophagy-related molecule p62 after 3-day de-differentiation culture; conditions: 3-day culture, 1:3 bead-to-T cell ratio; temsirolimus 1.0 or 0.3 µM, Vitamin D 0.01-1.0 nM, Daclizumab 50 µg/ml
# Excerpt: After the 3-day culture interval, the T cells were harvested, and protein was isolated and subjected to western blot analysis for the autophagy-related gene, p62, and the housekeeping gene, Actin.
# [3] = test system: human CD4+ and CD8+ T cells; assay: Western blot for mTORC1 complex protein Raptor after 3-day de-differentiation culture
# Excerpt: After the 3-day culture interval, the T cells were harvested, and protein was isolated and subjected to western blot analysis for the mTORC1 complex protein, Raptor, and the housekeeping gene, Actin.
# [4] = test system: human CD4+ and CD8+ T cells; assay: Western blot for Raptor, Rictor, p70S6K, SGK1 after 3-day de-differentiation culture; conditions: relative to control culture without the three inhibitors; temsirolimus 1 µM, Vitamin D 0.03-1.0 nM, Daclizumab 50 µg/ml
# Excerpt: After the 3-day culture interval, the T cells were harvested, and protein was isolated and subjected to western blot analysis for the mTORC1 complex protein, Raptor; the mTORC2 complex protein, Rictor; the post-mTORC1 protein p70S6K; the post-mTORC2 protein, SGK1; and the housekeeping gene, GAPDH.
# [5] = test system: human CD4+ and CD8+ T cells; assay: T cell yield at day 13 after de-differentiation interval and re-stimulation without inhibitors; conditions: columns #5 and #6; Vitamin D reduced to 0.01 nM or increased to 1.0 nM
# Experimental: After 10 days (13 days of total culture), the T cells were harvested, enumerated, and evaluated by flow cytometry. FIG. 8 illustrates the effect of culture components during the de-differentiation interval on subsequent T cell yield (at day 13 of culture). […] After the 3-day interval, media was exchanged to fresh X-Vivo 20 without inhibitors, high-level co-stimulation was provided (3:1 bead-to-T cell ratio), and the T cell growth cytokines IL-2 (100 IU/ml) and IL-7 (10 ng/ml) were added. At day 13 of culture, viable T cells were enumerated and the overall yield is shown relative to day 0 input number.
# [6] = test system: human CD4+ and CD8+ T cells; assay: Luminex cytokine analysis of de-differentiated T cells cultured in polarization-neutral media; conditions: Vitamin D concentration during the de-differentiation interval
# Experimental: FIGS. 11A-11D depict the inflammatory Th1/Th17 cytokine analysis of cultured de-differentiated T cells in polarization-neutral media. […] After 3-days, the de-differentiated T cells were co-stimulated (typical bead-to-T cell ratio of 3:1) in media supplemented with the T cell growth cytokines rhu IL-2 (100 IU/ml) and rhu IL-7 (10 ng/ml), which are not potent in terms of inducing T cell polarization. After 10 days in culture (total, day 13 of culture), the T cells were harvested, washed, and re-stimulated with 3/28 beads (3:1 ratio) for 24 hr; the resultant supernatant was harvested and tested for cytokine content by Luminex multi-analyte method. All results shown are expressed as cytokine level in pg per ml per 1 × 10^6 cells/ml/24 hr.
# FIGS. 12A-12D depicts the IL-2 and Th2-type cytokine analysis of cultured de-differentiated T cells in polarization-neutral media. […] After 3-days, the de-differentiated T cells were co-stimulated (typical bead-to-T cell ratio of 3:1) in media supplemented with the T cell growth cytokines rhu IL-2 (100 IU/ml) and rhu IL-7 (10 ng/ml), which are not potent in terms of inducing T cell polarization. […] All results shown are expressed as cytokine level in pg per ml per 1 × 10^6 cells/ml/24 hr.
# [7] = 3-day culture, bead-to-T cell ratio 1:3, Vitamin D 0.1 or 1.0 nM
smiles,measurement,setting,value
"C=C1/C(=C\C=C2/CCC[C@]3(C)[C@@H]([C@H](C)CCCC(C)(C)O)CC[C@@H]23)C[C@@H](O)C[C@@H]1O [Vitamin D, 1,25-vitamin D]",Granzyme B RNA expression,[1]; [7],reduction
same,IFN-gamma RNA expression,[1]; [7],reduction
same,IL-10 RNA expression,[1]; [7],reduction
same,IL-7 receptor alpha RNA expression,[1]; Vitamin D 1.0 nM,not Vitamin D alone
same,KLF4 RNA expression,[1]; Vitamin D 1.0 nM,neither temsirolimus nor Vitamin D alone increased
same,KLF10 RNA expression,[1]; Vitamin D 1.0 nM,does not act alone to up-regulate
same,HIF-1-α RNA expression,[1]; Vitamin D 0.1 to 1.0 nM,did not down-regulate
same,Nanog transcription factor RNA expression,[1]; Vitamin D 0.1 to 1.0 nM,does not act alone to up-regulate
same,STAT1 RNA expression,[1]; Vitamin D 0.1 to 1.0 nM,acts alone to beneficially down-regulate
same,T-BET RNA expression,[1]; Vitamin D 0.1 to 1.0 nM,acts alone to beneficially down-regulate
same,"p62 expression (western blot, normalized by actin)",[2],increased p62 expression
same,Raptor inhibition at Vitamin D 0.01 nM,[3]; Vitamin D level reduced to 0.01 nM,sub-optimal Raptor inhibition
same,Raptor expression at Vitamin D 0.3 nM,"[3]; culture 7, 0.3 nM Vitamin D, versus 0.1 nM",higher level of Raptor expression
same,Rictor expression (western blot),[4],effective
same,T cell yield at day 13 with Vitamin D 0.01 nM or 1.0 nM,[5],very low yield
same,IFN-γ and TNF-α levels with Vitamin D 0.01 nM relative to 0.1 nM,[6],somewhat higher levels
